We go through three compounds from patent US20260374818A1, “CATIONIC PEPTIDES WITH BROAD SPECTRUM ACTIVITY” (priority 2023, published 2026).

Values after ≈ are worked out from the molar mass of the structure shown. Where a SMILES comes first, the peptide text is derived from it. [ ]: non-standard residue; d: D form.

For data set [1], the system named is peripheral blood mononuclear cells (PBMCs). Nature of the data set: Cytotoxicity (LDH release), PBMCs. Background: Release of lactate dehydrogenase indicates damage to the cell membrane.
Data set [2] is described as follows: Peptide aggregation in RPMI + 10% FBS with PBMCs (microscopy). It counts as physicochemical. The conditions noted are these: 200 μg/ml or highest concentration, overnight. As for the experimental part:
Peptide Aggregation: Peptide aggregation was assessed qualitatively by examining samples of peptides mixed with PBMCs following overnight incubation at 37 °C and 5% CO2. All samples were prepared in RPMI media containing 10% FBS the same manner as the cytotoxicity assays described above. Visualization of aggregates was done using a Nikon Eclipse TS100 Inverted Microscope at 10× magnification.
In aggregation studies, peptides were added to PBMCs in RPMI media containing 10% FBS and incubated overnight at 37 °C in 5% CO2.
The peptides were also evaluated for their tendency to aggregate when added to RPMI tissue culture media containing 10% fetal bovine serum in the presence of PBMCs. Peptides were added to PBMCs in RPMI media containing 10% FBS and incubated overnight at 37 °C in 5% CO2. […] Compared to a highly aggregation prone peptide, 1018 [Haney, E. F., et al. (2017). Aggregation and its influence on the immunomodulatory activity of synthetic innate defense regulator peptides.
As with the DJK-5 derivatives above, the AB103-D derivatives were evaluated for their tendency to aggregate when added to RPMI tissue culture media containing 10% fetal bovine serum in the presence of PBMCs. Peptides were added to PBMCs in RPMI media containing 10% FBS and incubated overnight at 37 °C in 5% CO2.

Data set [3] has as its system 3-day-old oral plaque biofilms. In words: Oral plaque biofilm model, brief (1 minute) exposure, dead cell volume. It counts as cell-based. The conditions noted are these: 10 μg/mL, 1 minute (FIG. 11).
The subject of data set [4] is 3-day-old oral plaque (multispecies) biofilms. In words: Oral plaque biofilm model, long-term (1-3 days) exposure, dead cell volume. Type of data set: cell-based. As to conditions: 10 μg/mL, 1 or 3 days (FIG. 10).
Another data set concerns red blood cells. Nature of the data set: Hemolysis. Type of data set: cell-based, human. The conditions noted are these: 4 hours. As for the experimental part: Hemolysis: Peptide induced hemolysis was evaluated according to methods described previously [Hilchie, A. L., et al. (2016). Mastoparan is a membranolytic anti-cancer peptide that works synergistically with gemcitabine in a mouse model of mammary carcinoma. Biochimica Et Biophysica Acta, 1858(12), 3195-3204]. Briefly, red blood cells were obtained, with human ethics approval, from the blood of healthy volunteers collected in a sodium heparin tube and then rinsed three times in PBS, centrifuging between washes, to obtain the hematocrit (100% RBC). A 2.5% RBCs suspension was exposed to peptide at varying concentrations and incubated at 37 C in a 5% CO2 humidified atmosphere for 4 hours. Supernatants were collected following centrifugation (1100 rpm) and transferred to a flat bottom microtitre plate. The absorbance (490 nm) of each supernatant was measured on a BioTek Epoch Microplate Spectrophotometer. Percent hemolysis was calculated by comparing the absorbance arising from peptide treated cells to RBCs treated with […] (0% hemolysis) or lysed with 1% Triton X-100 (100% hemolysis).

Another data set deals with Streptococcus salivarius. Nature of the data set: MIC (broth microdilution) of peptides, S. salivarius. As to conditions: mode of three biological replicates. Type of data set: cell-based. Here is the method: (§1) Minimal inhibitory concentration (MIC) against planktonic bacteria: The MIC of the synthetic peptides was determined in Mueller-Hinton broth (MHB) using the broth microdilution method described previously [Wiegand, I., Hilpert, K., & Hancock, R. E. (2008). Agar and broth dilution methods to determine the minimal inhibitory concentration (MIC) of antimicrobial substances. Nature Protocols, 3(2), 163-175]. Briefly, 10 μl of a 10× concentrated peptide solution was placed in the bottom of a well in a 96-well polypropylene round bottom plate (Corning Inc.). A bacterial suspension of ~5×10^5 CFU/ml was prepared from an overnight culture and 90 μl of this was added to each well. […] Bacteria tested included P. aeruginosa PAO1, MRSA USA300 LAC, Staphylococcus haemolyticus, Staphylococcus epidermidis, Klebsiella pneumoniae and Streptococcus salivarius.
(§2) Finally, the AB103-D derivatives that were the least aggregation prone and which produced the lowest toxic effects in vivo were evaluated for their direct antibacterial activity towards several pathogens of clinical relevance using a standard minimum inhibitory concentration (MIC) assay [Wiegand, I., Hilpert, K., & Hancock, R. E. (2008). Agar and broth dilution methods to determine the minimal inhibitory concentration (MIC) of antimicrobial substances. Nature Protocols, 3(2), 163-175]. Specifically, peptides AB110-D, AB111-D, AB114-D and AB115-D were tested against P. aeruginosa PAO1, MRSA USA 300, Staphylococcus haemolyticus, Staphylococcus epidermidis, Klebsiella pneumoniae and Streptococcus salivarius and compared against the antibacterial activity of DJK-5 and AB103-D (Table 7). Overall, the antibacterial potency of all of the AB103-D derivatives was stronger than that seen for DJK-5, particularly in the case of the Gram-negative pathogens P. aeruginosa and K. pneumoniae. […]
For orientation: Broth dilution looks for growth in wells or tubes with falling amounts of substance.

Another data set relates to MRSA USA 300. Nature of the data set: MIC (broth microdilution) of peptides, MRSA. It counts as cell-based, methicillin resistant Staphylococcus aureus. As to conditions: MRSA USA300; mode of three biological replicates. Here is the method:
as §1, §2

In data set [5] the test system is P. aeruginosa PAO1 biofilms. The conditions noted are these: P. aeruginosa PAO1 biofilms; >95% pure peptides; crystal violet; BM2 minimal media.
A further data set relates to MRSA USA300 biofilms. In words: Biofilm inhibition by >95% pure peptides (crystal violet), MRSA. The conditions noted are these: MRSA USA300 biofilms, >95% pure peptides, 10% TSB + 0.1% glucose. Type of data set: cell-based, methicillin resistant Staphylococcus aureus.
Another data set relates to Klebsiella pneumoniae. In words: MIC (broth microdilution) of peptides, K. pneumoniae. Type of data set: cell-based. As to conditions: mode of three biological replicates. Here is the method:
as §1, §2

Data set [6] can be described thus: Subdermal murine toxicity model. As to conditions: for Clinical score: 1 hour after subcutaneous administration, comparator DJK-5; for Average cyst size compared to DJK-5: 16 hours after administration, 4 mg/kg. As for the experimental part:
FIGS. 14A-14B show murine subdermal toxicity assessment of AB103-D derived peptides. Clinical scores were recorded for each peptide treated mouse one hour after peptide administration (FIG. 14A). […] The presence of a cyst or lesion was recorded 16 hours after peptide administration and the size of the cyst was measured using calipers (FIG. 14B). Data shown are the mean of two independent replicates at a peptide dose of 4 mg/kg.
Subdermal murine toxicity model: A subdermal toxicity mouse model was used to evaluate whether peptides induced localized toxicity of treated cutaneous tissue. Mice were anesthetized with 2.5-3% isoflurane and their fur was removed by shaving followed by application of a chemical depilatory. […] Mice were visually assessed and received clinical scores for a battery of signs or symptoms (activity/behaviour change, appearance/grooming, hydration, pain, cyst formation), for which a score of zero was given to animals that appeared normal. Animals were weighed and clinical scores were totalled. Following an overnight (16 h) incubation, mice were scored and weighed then euthanized with CO2 followed by cervical dislocation. Mice were imaged and cysts (swollen, inflamed tissue) were measured using a caliper. Animal experiments were performed in accordance with the Canadian Council on Animal Care (CCAC) guidelines and were approved by the University of British Columbia Animal Care Committee. Female CD-1 mice were purchased from Charles River Laboratories, Inc. (Wilmington, MA). All mice were 8 weeks of age and weighed 25±5 g at the time of the experiment. Animals were group housed in cohorts of three to four littermates. Standard animal husbandry practices were employed.

For data set [7], the system named is P. aeruginosa PAO1 biofilms. In words: Biofilm inhibition by SPOT-synthesized AB103-D variants (crystal violet), P. aeruginosa. Type of data set: cell-based, Pseudomonas aeruginosa. The conditions noted are these: P. aeruginosa PAO1, SPOT peptides.
The test system of a further data set is P. aeruginosa PAO1. In words: MIC (broth microdilution) of peptides, P. aeruginosa. The conditions noted are these: mode of three biological replicates. It counts as cell-based, Pseudomonas aeruginosa. Here is the method:
as §1, §2

Data set [8] has as its system Staphylococcus haemolyticus. In words: MIC (broth microdilution) of peptides, S. haemolyticus. Type of data set: cell-based. The conditions noted are these: mode of three biological replicates. As for the experimental part: as §1, §2
Data set [9] deals with MRSA USA300 planktonic cells. Nature of the data set: Planktonic growth inhibition by pure AB103-D derivatives, MRSA. Type of data set: cell-based, methicillin resistant Staphylococcus aureus. As for the experimental part: The effect of peptide on bacterial and biofilm growth was assessed using the biofilm inhibition assay [Haney, E. F., Trimble, M. J., & Hancock, R. E. W. (2021) FIGS. 20A-20D. Microtiter plate assays to assess antibiofilm activity against bacteria. Nature Protocols, 16(5), 2615-2632]. The effect of peptide on planktonic growth and biofilm growth of MRSA USA300 (FIG. 20A, FIG. 20C) and P. aeruginosa PAO1 (FIGS. 20B, 20D) was assessed and compared to the activity seen for AB103-D (gray stars) and DJK5 (gray open circles). Data shown are the average of three biological replicates. Error bars have been omitted for clarity. […]. The results indicated enhanced antibiofilm and antibacterial activity of AB103-D derivatives compared to DJK5.

The test system of data set [10] is Staphylococcus epidermidis. In words: MIC (broth microdilution) of peptides, S. epidermidis. Type of data set: cell-based. As to conditions: mode of three biological replicates. As for the experimental part:
as §1, §2

For data set [11], the system named is MRSA biofilms (USA300 LAC). As to conditions: MRSA biofilms, SPOT peptides.

As to `CC[C@@H](C)[C@@H](NC(=O)[C@@H](C)NC(=O)[C@@H](CCCNC(=N)N)NC(=O)[C@@H](Cc1c[nH]c2ccccc12)NC(=O)[C@@H](CCC(N)=O)NC(=O)[C@H](N)C(C)C)C(=O)N[C@@H](C(=O)N[C@@H](C(=O)N[C@H](CCCNC(=N)N)C(=O)N[C@@H](C(=O)N[C@@H](C(=O)N[C@H](CCCNC(=N)N)C(N)=O)[C@H](C)CC)C(C)C)C(C)C)[C@H](C)CC` [AB106-D, vqwraiivrvir-NH2] (H-[dV][dQ][dW][dR][dA][dI][dI][dV][dR][dV][dI][dR]-NH2), in data set [1], the “Cytotoxicity (LDH)” value is “only marginally toxic at the highest peptide concentration evaluated”. In addition, the Peptide aggregation result in data set [2] is “marginal peptide aggregation”. The “Killing of oral plaque biofilms, brief exposure” value in data set [3] was “comparable to or better than peptide DJK-5”. Also, in data set [4], the “Killing of oral plaque biofilms, long-term exposure” value is “activity comparable to peptide DJK-5”. Besides, the Hemolysis result in the data set with red blood cells is listed as “only marginally toxic at the highest peptide concentration evaluated”.
As for `CC[C@@H](C)[C@@H](NC(=O)[C@@H](C)NC(=O)[C@@H](CCCNC(=N)N)NC(=O)[C@@H](Cc1c[nH]c2ccccc12)NC(=O)[C@@H](CCC(N)=O)NC(=O)[C@H](NC(=O)[C@@H](CCCNC(=N)N)NC(=O)[C@@H](Cc1c[nH]c2ccccc12)NC(=O)[C@H](NC(=O)[C@@H](CCCNC(=N)N)NC(=O)[C@H](NC(=O)[C@H](N)CCCNC(=N)N)C(C)C)C(C)C)C(C)C)C(N)=O` [AB111-D, rvrvwrvqwrai] (H-[dR][dV][dR][dV][dW][dR][dV][dQ][dW][dR][dA][dI]-NH2), the MIC came out at 0.8 µg/mL (≈ 0.493 µM) against Streptococcus salivarius; 0.8 µg/mL (≈ 0.493 µM) against MRSA USA 300; 0.8 µg/mL (≈ 0.493 µM) with Klebsiella pneumoniae; 2 µg/mL (≈ 1.23 µM) against P. aeruginosa PAO1; 0.8 µg/mL (≈ 0.493 µM) in data set [8]; 0.8 µg/mL (≈ 0.493 µM) in data set [10]. For the same compound, the figures for the “minimum inhibitory concentration of peptide that inhibited at least 90% of biofilm growth (MBIC90)” value (in [5]; in the data set with MRSA USA300 biofilms) were 4 µM and 0.5 µM, respectively. Also, the Clinical score in data set [6] is listed as less than 2. Besides, in data set [6], the “Average cyst size compared to DJK-5” value was “smaller than those induced by DJK-5”. The “Activity against PAO1 biofilms compared to AB103-D” value in [7] is “activity superior to that of AB103-D”. The Planktonic growth inhibition entry in data set [9] is listed as “among the most active against planktonic cells”.
For the compound `CC[C@@H](C)[C@@H](NC(=O)[C@@H](C)NC(=O)[C@@H](CCCNC(=N)N)NC(=O)[C@@H](Cc1c[nH]c2ccccc12)NC(=O)[C@@H](CCCCN)NC(=O)[C@H](NC(=O)[C@@H](CCCNC(=N)N)NC(=O)[C@H](NC(=O)[C@H](NC(=O)[C@@H](CCCNC(=N)N)NC(=O)[C@H](NC(=O)[C@H](N)CCCNC(=N)N)C(C)C)C(C)C)[C@H](C)CC)C(C)C)C(N)=O` [AB114-D, rvrvirvkwrai] (H-[dR][dV][dR][dV][dI][dR][dV][dK][dW][dR][dA][dI]-NH2), the MIC in the data set with Streptococcus salivarius was determined as 0.8 µg/mL (≈ 0.516 µM); in the data set on MRSA USA 300, 0.8 µg/mL (≈ 0.516 µM); against Klebsiella pneumoniae, 0.8 µg/mL (≈ 0.516 µM); with P. aeruginosa PAO1 it was 2 µg/mL (≈ 1.29 µM); in data set [8], 0.8 µg/mL (≈ 0.516 µM); in data set [10] it was 0.4 µg/mL (≈ 0.258 µM). Moreover, the “Better activity vs. MRSA cf. AB103-D” value in [11] is reported as roughly 2 fold. In addition, the entries for the “minimum inhibitory concentration of peptide that inhibited at least 90% of biofilm growth (MBIC90)” value (in data set [5]; with MRSA USA300 biofilms) were 8 µM and 0.5 µM, respectively. The Clinical score in data set [6] is listed as less than 2. For the same compound, the “Average cyst size compared to DJK-5” value in [6] is given as “smaller than those induced by DJK-5”. Moreover, the Planktonic growth inhibition entry in data set [9] is on record as “among the most active against planktonic cells”.

The term MIC denotes the smallest concentration in the dilution series that meets the test's criterion for growth inhibition. A high value points to a less susceptible organism.
